Test results reported in ChEMBL document CHEMBL1154717.
Active and inactive are the calls of the source. The calls are words filed in the database; no cut-off is given here.

Experiments:
[1] = Cmax in Sprague-Dawley rat at 25 mg/kg, po; format: ADME, organism-based; parameters: dose 25 mg/kg, route oral; details: in vivo
[2] = Terminal half life in Sprague-Dawley rat at 25 mg/kg, po; format: ADME, organism-based; parameters: dose 25 mg/kg, route oral; details: in vivo, read-out: beta t1/2 (converted)
[3] = Oral bioavailability in Sprague-Dawley rat at 25 mg/kg; format: ADME, organism-based; details: in vivo
HCT-116 [4] = test: cells; details: Homo sapiens, HCT-116, 96 h
SJSA-1 [5] = test: Induction of cell death in human SJSA1 cells by trypan blue staining; format: functional, cell-based
SJSA-1 [6] = test: Induction of cell death in human SJSA1 cells at 1. 25 uM after 2 days by trypan blue staining; format: functional
HCT-116 [7] = test: cells; details: Homo sapiens, HCT-116, 96 h; remark: listed apart in the source
Rattus norvegicus [8] = test: AUC (0 to t) in Sprague-Dawley rat at 25 mg/kg, po; format: ADME, organism-based, Plasma; parameters: dose 25 mg/kg, route oral; details: in vivo
[9] = Cmax in Sprague-Dawley rat at 50 mg/kg, po; format: ADME, organism-based; parameters: dose 50 mg/kg, route oral; details: in vivo
Rattus norvegicus [10] = test: AUC (0 to t) in Sprague-Dawley rat at 50 mg/kg, po; format: ADME, organism-based, Plasma; parameters: dose 50 mg/kg, route oral; details: in vivo
[11] = Terminal half life in Sprague-Dawley rat at 50 mg/kg, po; format: ADME, organism-based; parameters: dose 50 mg/kg, route oral; details: in vivo, read-out: beta t1/2 (converted)
[12] = Oral bioavailability in Sprague-Dawley rat at 50 mg/kg; format: ADME, organism-based; details: in vivo
SAOS-2 = test: Induction of cell death in human Saos2 cells deficient in wild type p53 at 10 uM by trypan blue staining; format: functional, cell-based
Mus musculus [13] = test: Toxicity in mouse xenografted with human SJSA1 cells assessed as weight loss at 300 mg/kg, po qd for 14 days relative to untreated control; format: organism-based, SJSA-1; parameters: dose 300 mg/kg, route oral; details: in vivo, 336 h
Mus musculus [14] = test: Toxicity in mouse xenografted with human SJSA1 cells assessed as occurrence of toxicity symptoms at 300 mg/kg, po qd for 14 days relative to untreated control; format: organism-based, SJSA-1; parameters: dose 300 mg/kg, route oral; details: in vivo, 336 h
[15] = target: T1, Tumour suppressor p53/oncoprotein Mdm2 (Homo sapiens) (UniProt P04637+Q00987); test: Inhibition of MDM2-p53 interaction in human SJSA1 cells expressing wild type p53 assessed as increase in MDM2 protein level at 10 uM by Western blot; format: cell-based; details: SJSA-1
T1 sequence (P04637 whole entry, looked up): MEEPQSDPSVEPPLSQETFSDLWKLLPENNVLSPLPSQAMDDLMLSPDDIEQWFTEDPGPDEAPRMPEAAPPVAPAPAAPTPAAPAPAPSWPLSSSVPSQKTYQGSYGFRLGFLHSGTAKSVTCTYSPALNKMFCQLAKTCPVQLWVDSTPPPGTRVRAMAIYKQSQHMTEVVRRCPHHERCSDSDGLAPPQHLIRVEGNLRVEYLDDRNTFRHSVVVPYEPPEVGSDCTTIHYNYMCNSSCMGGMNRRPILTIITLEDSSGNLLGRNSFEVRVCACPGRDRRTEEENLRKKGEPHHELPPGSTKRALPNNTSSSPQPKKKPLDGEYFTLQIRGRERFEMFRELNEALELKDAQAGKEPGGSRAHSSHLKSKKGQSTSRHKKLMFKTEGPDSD
T1 sequence (Q00987 whole entry, looked up): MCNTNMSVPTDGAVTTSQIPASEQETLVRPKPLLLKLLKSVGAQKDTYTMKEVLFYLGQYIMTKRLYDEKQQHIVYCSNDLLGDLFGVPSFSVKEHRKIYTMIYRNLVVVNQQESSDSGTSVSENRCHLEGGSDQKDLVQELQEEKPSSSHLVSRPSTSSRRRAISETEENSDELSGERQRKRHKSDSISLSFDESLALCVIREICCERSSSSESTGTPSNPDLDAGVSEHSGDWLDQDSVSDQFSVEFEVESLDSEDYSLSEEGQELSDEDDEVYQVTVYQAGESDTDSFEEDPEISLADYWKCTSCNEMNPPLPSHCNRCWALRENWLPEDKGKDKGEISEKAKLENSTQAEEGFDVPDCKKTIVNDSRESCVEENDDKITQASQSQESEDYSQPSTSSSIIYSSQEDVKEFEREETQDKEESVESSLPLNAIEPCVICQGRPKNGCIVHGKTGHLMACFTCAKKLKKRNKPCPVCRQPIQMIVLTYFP

[16] = target: T1, Tumour suppressor p53/oncoprotein Mdm2 (Homo sapiens); test: Inhibition of MDM2-p53 interaction in human SJSA1 cells expressing wild type p53 assessed as increase in p21 protein level at 10 uM by Western blot; format: cell-based; details: SJSA-1

Cmax [1] [ng/mL] | half-life [2] [h] | bioavailability [3] [%] | IC50 (HCT-116 [4]) [µM] | IC50 (HCT-116 [7]) [µM] | Structure (SMILES) | further results
248 | 1.3 | 10 | 0.7 |  | CC(C)(C)C[C@H]1N[C@@H](C(=O)NCCN2CCOCC2)[C@H](c2cccc(Cl)c2F)[C@@]12C(=O)Nc1cc(Cl)ccc12 | 
3550 | 3.4 | 31 | 2.8 | 32.8 | CC(C)(C)C[C@H]1N[C@@H](C(=O)NCC[C@@H](O)CO)[C@H](c2cccc(Cl)c2)[C@@]12C(=O)Nc1cc(Cl)c(F)cc12 | AUC (Rattus norvegicus [8]): 11700 ng·h/mL
274 | 3.8 | 31 | 0.4 |  | CN1CCN(CCNC(=O)[C@@H]2N[C@H](CC(C)(C)C)[C@]3(C(=O)Nc4cc(Cl)ccc43)[C@H]2c2cccc(Cl)c2F)CC1 | 
2070 | 3.2 | 18 | 1.3 | 23.6 | CC(C)(C)C[C@H]1N[C@@H](C(=O)NC[C@H](O)CO)[C@H](c2cccc(Cl)c2)[C@@]12C(=O)Nc1cc(Cl)c(F)cc12 | 
120 | 7.1 | 14 | 0.4 | 7.3 | CN1CCC(CCNC(=O)[C@@H]2N[C@H](CC(C)(C)C)[C@]3(C(=O)Nc4cc(Cl)ccc43)[C@H]2c2cccc(Cl)c2F)CC1 | 
805 | 3 | 19 | 0.8 |  | CC(C)(C)C[C@H]1N[C@@H](C(=O)NCC[C@H](O)CO)[C@H](c2cccc(Cl)c2)[C@@]12C(=O)Nc1cc(Cl)ccc12 | 
97 | 1.2 | 5 | 0.8 |  | COCCOCCNC(=O)[C@@H]1N[C@H](CC(C)(C)C)[C@]2(C(=O)Nc3cc(Cl)ccc32)[C@H]1c1cccc(Cl)c1F | 
 |  |  |  |  | COc1ccc2c(c1)NC(=O)[C@]21[C@@H](CC(C)(C)C)N[C@@H](C(=O)N(C)C)[C@@H]1c1cccc(Br)c1 | Activity [15]: inactive; Activity [16]: inactive

Structure (SMILES) | Cmax [1] [ng/mL] | half-life [2] [h] | bioavailability [3] [%] | IC50 (HCT-116 [4]) [µM] | IC50 (HCT-116 [7]) [µM] | further results
CC(C)(C)C[C@H]1N[C@@H](C(=O)NCC[C@H](O)CO)[C@H](c2cccc(Cl)c2)[C@@]12C(=O)Nc1cc(Cl)c(F)cc12 | 3750 | 1.4 | 65 | 1.1 | 24.8 | Activity (SJSA-1 [5]): Dose-dependent effect; Activity (SJSA-1 [6]): 20%
CC(C)(C)C[C@H]1N[C@@H](C(=O)NCC[C@H](O)CO)[C@H](c2cccc(Cl)c2F)[C@@]12C(=O)Nc1cc(Cl)ccc12 |  |  |  | 0.4 | 16 | Cmax [9]: 1510 ng/mL; AUC (Rattus norvegicus [10]): 8770 ng·h/mL; half-life [11]: 3.9 h; bioavailability [12]: 21%; Activity (SJSA-1 [5]): Dose-dependent effect; Activity (SJSA-1 [6]): 50%; Activity (SAOS-2): inactive; Activity (Mus musculus [13]): Non-toxic; Activity (Mus musculus [14]): Non-toxic
